Assay results taken from ChEMBL document CHEMBL1201862, “PubChem BioAssay data set” (2004).
Active and inactive are the calls of the source.

What was measured:
[1] = viability of uninfected HEp-2 cells – cell-based, HTS, cytotoxicity control for RSV inhibitor project, dose response (AID 2410); type: functional; details: human respiratory syncytial virus
[2] = target: T1, Corticotropin-releasing factor receptor 2/Corticotropin-releasing factor-binding protein (Homo sapiens, UniProt P24387+Q13324); assay: activators of CRF receptor 2 with binding protein – uHTS hits, confirmation (AID 602473); type: functional; details: read-out: EC50_Mean
T1 sequence (Q13324 whole entry): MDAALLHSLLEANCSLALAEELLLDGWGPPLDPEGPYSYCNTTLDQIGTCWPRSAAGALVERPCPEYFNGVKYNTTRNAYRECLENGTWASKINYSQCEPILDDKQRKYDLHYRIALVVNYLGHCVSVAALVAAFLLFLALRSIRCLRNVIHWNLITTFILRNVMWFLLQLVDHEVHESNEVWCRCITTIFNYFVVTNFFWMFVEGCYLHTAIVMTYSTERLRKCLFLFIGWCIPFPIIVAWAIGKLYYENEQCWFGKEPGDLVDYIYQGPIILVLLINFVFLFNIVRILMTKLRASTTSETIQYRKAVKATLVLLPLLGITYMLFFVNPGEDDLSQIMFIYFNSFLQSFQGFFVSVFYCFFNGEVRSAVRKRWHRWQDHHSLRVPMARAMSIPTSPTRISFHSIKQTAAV
T1 sequence (P24387 whole entry): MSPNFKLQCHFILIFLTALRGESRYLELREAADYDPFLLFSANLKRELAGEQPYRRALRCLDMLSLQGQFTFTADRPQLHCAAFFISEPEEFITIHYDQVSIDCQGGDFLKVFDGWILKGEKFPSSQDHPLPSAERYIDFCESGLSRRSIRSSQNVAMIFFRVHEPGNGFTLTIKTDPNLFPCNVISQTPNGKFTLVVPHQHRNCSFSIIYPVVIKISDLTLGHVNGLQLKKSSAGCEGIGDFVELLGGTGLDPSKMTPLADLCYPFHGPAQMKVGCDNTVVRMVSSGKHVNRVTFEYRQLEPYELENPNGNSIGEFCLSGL

Streptokinase A = target: T2, Streptokinase A (Streptococcus pyogenes serotype M1, UniProt P10520); assay: viability-normalized secreted streptokinase activity reduction – plasminogen activation absorbance, OD405, dose response (AID 1914); type: functional, Streptococcus pyogenes M1 GAS;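 also: secreted streptokinase activity via plasminogen activation per viability signal from cell pellet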
T2 sequence (P10520 whole entry): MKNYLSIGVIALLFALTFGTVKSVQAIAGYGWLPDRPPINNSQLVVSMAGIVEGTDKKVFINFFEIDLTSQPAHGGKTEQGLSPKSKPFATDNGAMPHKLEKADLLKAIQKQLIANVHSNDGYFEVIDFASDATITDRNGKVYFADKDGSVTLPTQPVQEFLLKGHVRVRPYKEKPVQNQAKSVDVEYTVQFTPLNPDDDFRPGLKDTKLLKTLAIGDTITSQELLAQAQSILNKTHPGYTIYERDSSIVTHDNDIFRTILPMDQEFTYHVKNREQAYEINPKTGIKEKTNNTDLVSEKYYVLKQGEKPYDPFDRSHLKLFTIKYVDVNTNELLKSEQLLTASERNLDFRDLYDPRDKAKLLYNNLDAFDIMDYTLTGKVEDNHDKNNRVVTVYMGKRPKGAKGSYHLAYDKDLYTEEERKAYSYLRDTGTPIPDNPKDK

[3] = system: Streptococcus sp. 'group A'; assay: Streptococcus pyogenes SK(-)GAS viability under kanamycin – luminescence, BacTiterGlo, confirmation, counter-screen for streptokinase expression inhibitor project, dose response (AID 1900); type: functional, organism-based
Streptococcus = assay: GAS UMAA2166 growth inhibition – luminescence, BacTiterGlo, counter-screen for streptokinase expression inhibitor project, dose response (AID 1915); type: functional, organism-based;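 also: potency for reduction of bacterial viability or growth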
Cytochrome P450 2D6 = Cytochrome P450 2D6 (Homo sapiens, UniProt P10635);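 also: CYP2D6 member of a cytochrome P450 panel assay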
Sequence of Cytochrome P450 2D6 (P10635 whole entry): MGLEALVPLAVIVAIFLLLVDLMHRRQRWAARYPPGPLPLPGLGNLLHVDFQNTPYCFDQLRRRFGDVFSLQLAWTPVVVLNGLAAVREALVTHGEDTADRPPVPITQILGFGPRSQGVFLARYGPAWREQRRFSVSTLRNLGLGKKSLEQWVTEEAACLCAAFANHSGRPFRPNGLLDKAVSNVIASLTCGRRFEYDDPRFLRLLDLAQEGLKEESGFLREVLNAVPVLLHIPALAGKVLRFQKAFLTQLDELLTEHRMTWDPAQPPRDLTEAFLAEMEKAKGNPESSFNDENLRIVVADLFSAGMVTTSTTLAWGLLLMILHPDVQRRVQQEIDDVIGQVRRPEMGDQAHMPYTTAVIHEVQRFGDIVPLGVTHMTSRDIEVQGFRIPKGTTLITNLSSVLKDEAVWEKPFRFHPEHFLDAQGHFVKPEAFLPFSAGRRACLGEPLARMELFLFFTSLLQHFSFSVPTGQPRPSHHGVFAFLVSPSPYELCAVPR

Cytochrome P450 2C19 = Cytochrome P450 2C19 (Homo sapiens, UniProt P33261); assay: Cytochrome panel assay with activity outcomes. Panel member name: p450-cyp2c19 Compounds with AC50 equal or less than 10 uM are considered active; type: functional; details: read-out: AC50
Sequence of Cytochrome P450 2C19 (P33261 whole entry): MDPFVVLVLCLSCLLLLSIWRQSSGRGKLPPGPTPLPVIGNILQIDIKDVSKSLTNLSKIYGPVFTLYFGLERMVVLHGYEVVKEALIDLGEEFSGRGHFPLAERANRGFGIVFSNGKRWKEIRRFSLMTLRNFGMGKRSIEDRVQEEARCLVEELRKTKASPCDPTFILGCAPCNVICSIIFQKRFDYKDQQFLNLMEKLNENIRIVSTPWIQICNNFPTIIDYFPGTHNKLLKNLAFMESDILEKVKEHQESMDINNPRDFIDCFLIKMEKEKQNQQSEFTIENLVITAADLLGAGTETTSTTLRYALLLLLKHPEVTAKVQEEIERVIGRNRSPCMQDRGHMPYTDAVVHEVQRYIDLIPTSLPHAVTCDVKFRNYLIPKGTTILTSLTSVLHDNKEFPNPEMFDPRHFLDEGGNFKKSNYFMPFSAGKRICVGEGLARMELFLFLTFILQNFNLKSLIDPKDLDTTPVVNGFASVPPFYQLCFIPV

[4] = Luminescence Cell-Based Dose Retest to Confirm Inhibitors of Cancer Stem Cells. [Related pubchem assays (depositor defined):AID2717, AID2721]; type: functional; details: Homo sapiens
H4 = assay: Luminescence Cell-Based Dose Response HTS to Identify Activators of 5'UTR Stem-Loop Driven Prion Protein mRNA Translation in H4 Neuroglioblastoma Cells. [Related pubchem assays: 1829 (Project Summary), 1814 (Primary HTS)]; type: functional; details: Homo sapiens
[5] = Luminescence Cell-Based Dose Response HTS to Identify Activators of Luciferase Translation or Activity in H4 […] Cells. [Related pubchem assays: 1829 (Project Summary), 1814 (Primary HTS)]; type: functional
[6] = non-specific 3'UTR reporter inhibition in Clone20-Shn3RL – cell-based, Renilla luciferase, cherry-picked, counter-screen for Shn3 inhibitor project, dose response (AID 624133); type: functional
Cytochrome P450 1A2 = target: T3, Cytochrome P450 1A2 (Homo sapiens, UniProt P05177);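 also: PubChem cytochrome P450 panel assay, CYP1A2 panel member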
T3 sequence (P05177 whole entry): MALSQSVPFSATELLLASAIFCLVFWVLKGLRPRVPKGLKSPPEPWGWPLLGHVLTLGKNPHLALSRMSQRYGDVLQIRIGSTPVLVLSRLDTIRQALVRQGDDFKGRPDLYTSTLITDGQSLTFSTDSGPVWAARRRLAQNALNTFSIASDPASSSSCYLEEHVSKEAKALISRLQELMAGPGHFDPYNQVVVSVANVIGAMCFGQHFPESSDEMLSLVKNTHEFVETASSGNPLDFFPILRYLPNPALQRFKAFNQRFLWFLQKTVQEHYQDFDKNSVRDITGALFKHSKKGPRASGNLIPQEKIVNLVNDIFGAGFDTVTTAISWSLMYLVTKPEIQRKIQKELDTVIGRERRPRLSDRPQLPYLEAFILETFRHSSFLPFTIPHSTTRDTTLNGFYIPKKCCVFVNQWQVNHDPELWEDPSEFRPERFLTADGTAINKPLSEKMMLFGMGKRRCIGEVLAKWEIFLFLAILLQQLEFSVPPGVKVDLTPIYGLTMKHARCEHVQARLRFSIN

## Oc1cccc(Nc2nc(O)c(/C=C3\C=Nc4ccccc43)s2)c1
[1]
  CC50: 15.3 µM (active)

## O=C1NC(=O)/C(=C/c2c[nH]c3ccc(Br)cc23)N1
[1]
  CC50: 24.8 µM (active)

## C(=N\Nc1nc(N2CCCCCC2)nc(N2CCCCCC2)n1)/c1ccccc1
[1]
  CC50: 28.4 µM (active)

## Cc1ccc2c[nH]nc2c1[N+](=O)[O-]
[1]
  CC50: 42.8 µM (active)

## O=[N+]([O-])c1ccc(-c2ccc(/C=N/Nc3nc(N4CCCCC4)nc(N4CCCCC4)n3)o2)cc1
[2]
  EC50: 5.96 µM (active)

## Clc1ccccc1CN(Cc1ccccc1)c1ncnc2nc[nH]c12
Streptokinase A
  EC50: > 150 µM (not active)

## O=C(Nc1ccc(OC(F)(F)F)cc1)C1CCCN(S(=O)(=O)c2c[nH]cn2)C1 (stereo not given)
Streptokinase A
  EC50: > 150 µM (not active)
[3]
  EC50: > 150 µM (not active)
Streptococcus
  EC50: > 150 µM (not active)

## CC(C)c1nc(N2CCCC2)c(C#N)c2c1CCCC2
Streptokinase A
  EC50: > 150 µM (not active)
[3]
  EC50: 4.2 µM (active)
Streptococcus
  EC50: 7.01 µM (active)

## CCOC(=O)c1ccc(COC(=O)c2ccc3c(c2)-c2ccccc2C3=O)cc1
[1]
  CC50: 20.8 µM (active)

## O=c1c(-c2ccccc2)coc2cc(O)ccc12 [7-HYDROXY ISOFLAVONE]
[1]
  CC50: 46.3 µM (active)

## FC(F)(F)c1ccccc1-c1cc(NCc2cccs2)ncn1
Cytochrome P450 2D6
  AC50: 25.1 µM (inconclusive)

## N=C(N)S[C@H]1c2ccccc2-c2cc([N+](=O)[O-])ccc21
Cytochrome P450 2C19
  AC50: 631 nM (inconclusive)
Cytochrome P450 2D6
  AC50: 2.51 µM (inconclusive)

## CCC(C)Sc1cccc(-c2nc3cc(C)ccn3c2NCc2ccccc2)c1 (stereo not given)
[4]
  AC50: 5.14 µM (active)

## COc1ccc(C2CC(c3ccc(Br)cc3)=NN2C(=O)CSC2=NCCS2)cc1 (stereo not given)
[1]
  CC50: 24.1 µM (active)

## CCC(C)c1ccc(C(C)N=C(S)NC2CCCCC2)cc1 (stereo not given)
Streptokinase A
  EC50: 146 µM (active)
[3]
  EC50: 8.05 µM (active)
Streptococcus
  EC50: 18.1 µM (active)

## CC(=O)c1cccc(NC(=O)C(=O)Nc2cccc3ccccc23)c1
H4
  EC50: 10.7 µM (active)
[5]
  EC50: 13.3 µM (active)

## CCOC(=O)c1c(NC(=O)/C=C\C(=O)O)sc(C)c1-c1ccccc1
[1]
  CC50: 19.4 µM (active)

## CC(C)S(=O)(=O)c1csc(NC(=O)Nc2ccc(Cl)cc2)c1Cl
Streptokinase A
  EC50: 74.3 µM (active)
[3]
  EC50: 12.1 µM (active)
Streptococcus
  EC50: > 150 µM (not active)

## COc1c(C)cc(C(=O)C2CCCN(C(=O)c3cccc(-n4cccn4)c3)C2)cc1C (stereo not given)
[6]
  AC50: > 70 µM (inactive)

## CC(=O)c1cccc(NC(=S)NC(=O)Cc2ccc(Cl)cc2)c1
[2]
  EC50: > 53 µM (inactive)

## CCOc1cc(/C=N/O)cc(Br)c1OCc1ccc(Cl)cc1
[4]
  AC50: 3.77 µM (active)

## Cc1ccc(Cn2nnc3c(O)nc(C4CCN(C(=O)Cc5cccs5)CC4)nc32)cc1
Cytochrome P450 1A2
  AC50: 31.6 µM (inconclusive)
Cytochrome P450 2D6
  AC50: 17.8 µM (inconclusive)

## COc1cc(OC)cc(C(=O)Nc2nc3ccccc3[nH]2)c1
Streptokinase A
  EC50: > 150 µM (not active)
[3]
  EC50: 7.14 µM (active)
Streptococcus
  EC50: > 150 µM (not active)

## O=C(Nc1ccccc1)N1CCC2(CCNCC2)CC1
Cytochrome P450 2D6
  AC50: 25.1 µM (inconclusive)

## CN(C)/C=C1\SC(=S)N(c2ccc(Br)cc2)C1=O
Streptokinase A
  EC50: 17.2 µM (active)
[3]
  EC50: 7.37 µM (active)
Streptococcus
  EC50: 52.3 µM (active)

## COc1ccc(-c2cnc(SCC(=O)Nc3nc(C(C)(C)C)cs3)n2Cc2ccco2)cc1
[1]
  CC50: 9.59 µM (active)

## CC(=O)Nc1ccc(-c2csc(NC(=O)Cc3ccccc3F)n2)cc1
[4]
  AC50: 9.04 µM (active)

## COc1ccc(-c2nc(N)nc(C)c2Oc2ccccc2Br)c(O)c1
[4]
  AC50: 1.96 µM (active)

## O=C(Nc1ccc(-c2cn3ccsc3n2)cc1)C1CC1
H4
  EC50: 4.21 µM (active)
[5]
  EC50: 0.487 µM (active)

## CN(C)Cc1ccccc1-c1cc(NCc2ccccc2)ncn1
Cytochrome P450 2D6
  AC50: 15.8 µM (inconclusive)

## Cc1ccccc1OCC(=O)Nc1ccccc1N1CCC(C)CC1
Streptokinase A
  EC50: 45 µM (active)
[3]
  EC50: 6.64 µM (active)
Streptococcus
  EC50: 11.1 µM (active)

## O=C(Cn1nc(C(F)F)cc1C(F)F)N/N=C/c1ccc2c(c1)OCO2
Cytochrome P450 2D6
  AC50: 2.82 µM (inconclusive)

## CC(=O)Nc1ccc(C2CC(c3ccc(Cl)cc3)=NN2c2ccccc2)cc1 (stereo not given)
[4]
  AC50: 1.64 µM (active)
[1]
  CC50: 47.5 µM (active)

## c1ccc(CCNc2nc(-c3ccccn3)cs2)cc1
Streptokinase A
  EC50: > 150 µM (not active)
[3]
  EC50: 7.29 µM (active)
Streptococcus
  EC50: 14.2 µM (active)

## COc1ccc(C(=O)NC2CCCCCC2)cc1S(=O)(=O)N1CCOCC1
Streptokinase A
  EC50: > 150 µM (not active)
[3]
  EC50: > 150 µM (not active)
Streptococcus
  EC50: > 150 µM (not active)

## COc1ccc2[nH]cc(CCNc3ncnc4ccc(-c5cccc(C#N)c5)cc34)c2c1
Cytochrome P450 2D6
  AC50: 3.16 µM (inconclusive)

## O=C1C=C(c2cc(C(F)(F)F)cc(C(F)(F)F)c2)C[C@@H](c2ccc(Cl)cc2)C1
[1]
  CC50: 17.3 µM (active)

## CCOc1ccc(CCNC(=O)C2CC(=O)N(C3CCCC3)C2)cc1OCC (stereo not given)
Cytochrome P450 2C19
  AC50: 63.1 nM (inconclusive)
Cytochrome P450 2D6
  AC50: 0.0282 µM (inconclusive)

## Cc1cccc(CNc2cc(-c3cccc(C#N)c3)ncn2)c1
Cytochrome P450 2D6
  AC50: 25.1 µM (inconclusive)

## O=CNn1cnc2c(oc3nc(-c4ccccc4)cc(-c4ccco4)c32)c1=O
[1]
  CC50: 9.82 µM (active)

## CC(=O)c1ccc(NC(=S)NC(=O)Cc2ccc(Cl)cc2)cc1
[2]
  EC50: 13.2 µM (active)
